Measured values as given in patent US4259332A, “Novel taurine derivatives” (priority 1979, dated 1981).

Legend:
[1] = BSF bile excretion after CCl4; assay type: in vivo, rat; details: 100 mg/kg endoperitoneal 4 days, CCl4 10% 10 ml/kg
Description: Endoperitoneal administration to rats of 100 mg/kg of Compound B for 4 days was followed on the fourth day, one hour after the last administration, with the rats receiving 10 ml/kg orally of a 10% solution of CCl4 in oil. BSF (5 mg/kg) in the bile was tested.

[2] = Curative effect on intoxication by CCl4; assay type: in vivo, rat; details: 100 mg/kg endoperitoneal 1 h after CCl4; BSF tested after 4 hours
Description: Oral administration to rats of 10 ml/kg of a 10% solution of CCl4 in oil was followed with endoperitoneal administration of 100 mg/kg of Compound B after 1 hour. BSF (50 mg/kg i.v.) in the blood was tested after 4 hours. 5 Animals were used per group, and expressed as percentage change with respect to the control, the Compound B gave a reduction of -34.2.

[3] = Toxicology, oral treatment of mice for 180 days, Compound B; assay type: in vivo, mouse; details: 200 mg/kg orally
[4] = Intoxication by CCl4 and curative treatment; assay type: in vivo; details: 100 mg/kg endoperitoneal on days 1, 2 and 3
Description: On the first day there was oral administration of 10 ml/kg of a 10% solution of CCl4 in oil and simultaneous endoperitoneal administration of 100 mg/kg of Compound B. On the second and third days, there was endoperitoneal administration of 100 mg/kg of Compound B, then testing of BSF (50 mg/kg i.v.) in the blood.
5 Animals were used per group, and expressed as pecentage variation with respect to the control, there was a reduction by Compound B of 16.1.

[5] = Protection against hepatic intoxication by CCl4 and cold, Compound B (BSF in blood); assay type: in vivo; details: 500 mg/kg endoperitoneal
Description: Oral administration of 5 ml/kg of a 20% solution of CCl4 in oil, with simultaneous endoperitoneal administration of 500 mg/kg of Compound B, was followed by exposure for 5 hours at 4° C. BSF in the blood (30 mg/kg i.v.) was tested. A comparison product, homocysteinethiolactone (OCT) was employed.
10 Animals were treated per group, and the results expressed as percentage change with respect to the controls were as shown in Table 4.

[6] = Antilipemic action, Morris, Handler or Nath diet, Compound B; assay type: in vivo, Wistar rat; details: for Bile BSF, percentage change vs control / Liver total lipids, percentage change vs control / Serum total cholesterol, percentage change vs control / Serum total lipids, percentage change vs control / Liver fresh organic weight, percentage change vs control / Serum beta-lipoproteins, percentage change vs control: 45 days, 200 mg/kg orally
Description: Wistar rats were treated for 45 days with a Morris diet, a Handler diet or a Nath diet. Simultaneously with the diet they received each day 200 mg/kg of Compound B or choline (except for the Nath diet) orally.

Acute toxicity, mouse = details: in vivo
Description: (§1) Tests were carried out both on mice and rats by means of oral, subcutaneous, intraperitoneal and intravenous administration.
(§2) In the case of oral administration, the product was used in the acid form suspended in an aqueous solution of carboxymethylcellulose, whilst in the case of parenteral administration it was made soluble by salt formation with sodium hydroxide in a physiological solution with a neutral final pH.
(§3) The results are given in the following table, together with the results found in the literature for acetylsalicylic acid (ASA).
(§4) Wherever possible, the values of the LD50 were calculated using the probit method; if no mortality took place even at very high dosages, the maximum dosage tested has been given.

[7] = Analgesic activity: convulsions produced by phenylquinone; assay type: in vivo, mouse; details: oral, ASA 200, AST 300 mg/Kg
Description: (A) Test of convulsions produced by phenylquinone injected into mice by the intraperitoneal route. The AST product was administered orally both in the acid form (AST Ac). and as the sodium salt (AST Na). It was compared with a molar equivalent dosage of acetylsalicylic acid and with a carboxymethylcellulose placebo. The convulsions were induced at varying intervals from the oral treatment counting from the first 20 minutes after the injection of phenylquinone.

[8] = assay type: in vivo, rat; details: rat, in vivo, po, 335 mg/kg
Description: Rats which had not been fed for 24 hours were used. The AST product was administered orally as the acid or the sodium salt at a dosage of 335 mg/Kg suspended in 1% carboxymethylcellulose. […] Both the methods of treatment and the observation time were identical for the 3 groups of animals.

[9] = Analgesic activity: mechanical pressure test on inflamed rat's paw; assay type: in vivo; details: oral, ASA 200, AST 300 mg/Kg
Description: (B) Mechanical pressure test on inflamed rat's paw. The AST product was administered both in the acid and sodium salt form by the oral method. It was compared with a molar equivalent dosage of acetylsalicylic acid and with a carboxymethylcellulose placebo. The inflammation of the paw was induced by a local injection of yeast simultaneously with the oral treatment with the drugs and the tenderness was measured in grams of mechanical pressure required to cause a reaction in the animal.

[10] = Pharmaco-toxicological tests on laboratory animals (summary); assay type: in vivo
Acute toxicity, rat = details: in vivo, intravenous, sodium salt solution
Description: as §1, §2, §3, §4

[11] = Edema resulting from yeast in the paw of the rat; assay type: in vivo; details: oral, ASA 200, AST 300 mg/Kg
Description: (A) Edema resulting from yeast in the paw of the rat. The AST product was administered orally both in the acid and sodium salt form. It was compared with a molar equivalent dose of acetylsalicylic acid and with carboxymethylcellulose placebo. The edema of the paw was induced with a local injection of the yeast simultaneously with the oral treatment with the drugs, and the volume of the paw was measured in hundredths of milliliter.

[12] = Antipyretic activity: pyrexia from subcutaneous yeast in the rat; assay type: in vivo; details: p.o., ASA 200, AST 300 mg/Kg
Description: Pyrexia from subcutaneous yeast in the rat. The AST product was administered orally in the acid from and the salt form with sodium, and by the intraperitoneal method in the salt form. It was compared with a molar equivalent dose of acetylsalicylic acid administered orally and with a carboxymethylcellulose placebo. The pyrexia was induced with a subcutaneous injection of yeast on the evening prior to the drug treatment, i.e. 16 hours before.

[13] = Edema as a result of nystatin in the rat's paw; assay type: in vivo; details: p.o.
Description: (B) Edema as a result of nystatin in the rat's paw. The long duration of this type of edema enabled the animals to be repeatedly treated in order to ascertain the presence if any of the protracted effect of the AST product also using parenteral administration. The comparison was carried out using a molar equivalent dose of acetylsalicylic acid administrated orally and with the carboxymethylcellulose placebo also only administered orally. The AST product was used in the acid form orally and in the salt form using intraperitoneal administration.
The dosages of the drugs, always proportional to one another, were varied from day to day, i.e.: the first day a dosage of 200 mg/Kg of ASA and 300 mg/Kg of AST; the second day a double dose of each; the third day a double dose of each divided into two equal components administered with a spacing of 9 hours (10 am and 7 pm respectively); the fourth day no treatment in order to check the length of the effect after the fourth administration.
The […] was injected into the paw on the night before the first treatment with the drugs and the volume of the paw was measured in hundredths of milliliter.

COc1cc(C(=O)OCCN(CCOC(=O)c2cc(OC)c(OC)c(OC)c2)CCS(=O)(=O)O)cc(OC)c1OC [Compound B, N,N-di-[2-(3,4,5-trimethoxybenzoyloxy)ethyl]taurine]
BSF bile excretion, percentage of excretion ([1]; 30 min.): 44.1% | BSF bile excretion, percentage of excretion ([1]; 60 min.): 50.9% | BSF in the blood, percentage change vs control (reduction) [2]: -34.2% | Mortality [3]: No mortality occurred | BSF in the blood, percentage variation vs control (reduction) [4]: 16.1% | Hepatic intoxication protection, percentage change of BSF in blood vs controls ([5]; test number 1): -27.5% | Hepatic intoxication protection, percentage change of BSF in blood vs controls ([5]; test number 2): -17.0% | Bile BSF, percentage change vs control ([6]; Handler diet, B and Choline): +23.4% | Liver total lipids, percentage change vs control ([6]; Handler diet, B and Choline): -29.1% | Serum total cholesterol, percentage change vs control ([6]; Handler diet, B and Choline): -7.3% | Serum total lipids, percentage change vs control ([6]; Handler diet, B and Choline): +9.1% | Liver fresh organic weight, percentage change vs control ([6]; Handler diet, second B column): -13.3% | Liver fresh organic weight, percentage change vs control ([6]; Handler diet): -24.9% | Liver total lipids, percentage change vs control ([6]; Handler diet): -37.7% | Serum total cholesterol, percentage change vs control ([6]; Handler diet): -6.3% | Serum total lipids, percentage change vs control ([6]; Handler diet): -15.9% | Bile BSF, percentage change vs control ([6]; Morris diet): +23.8% | Liver total lipids, percentage change vs control ([6]; Morris diet): -11.5% | Serum beta-lipoproteins, percentage change vs control ([6]; Morris diet): -23.7% | Serum total cholesterol, percentage change vs control ([6]; Morris diet): -23.2% | Serum total lipids, percentage change vs control ([6]; Morris diet): -22.4% | Liver total lipids, percentage change vs control ([6]; Nath diet): -23.4% | Serum beta-lipoproteins, percentage change vs control ([6]; Nath diet): -29.7% | Serum total cholesterol, percentage change vs control ([6]; Nath diet): -35.2% | Serum total lipids, percentage change vs control ([6]; Nath diet): -20.6% | Oral absorption (deduced from diet tests) ([6]; oral, powder with the diet): good oral absorption

CC(=O)Oc1ccccc1C(=O)OCCN(CCOC(=O)c1ccccc1OC(C)=O)CCS(=O)(=O)O [AST, N,N-di(acetylsalicyloyloxy ethyl)taurine]
LD50 (Acute toxicity, mouse; intravenous, sodium salt solution): 520 mg/kg | LD50 (Acute toxicity, mouse; ip, intraperitoneal, sodium salt solution): 1300 mg/kg | LD50 (Acute toxicity, mouse; oral, acid form in carboxymethylcellulose): 5000 mg/kg | LD50 (Acute toxicity, mouse; sc, subcutaneous, sodium salt solution): 2000 mg/kg | Inhibition % of convulsions in respect of treatment with placebo ([7]; 1h): 10% | Inhibition % of convulsions in respect of treatment with placebo ([7]; 2h): 11% | Inhibition % of convulsions in respect of treatment with placebo ([7]; 4h): 0% | Alteration of the gastric or intestinal mucosa [8]: did not show any alteration of the gastric or intestinal mucosa | % Inhibition of the hyperalgesia in respect of treatment with placebo ([9]; 1h): 47% | % Inhibition of the hyperalgesia in respect of treatment with placebo ([9]; 3h): 47% | % Inhibition of the hyperalgesia in respect of treatment with placebo ([9]; 5h): 19% | Antiinflammatory, analgesic and antipyretic properties (in words) ([10]; compared with acetylsalicylic acid): marked antiinflammatory, analgesic and antipyretic properties comparable to those of acetylsalicylic acid | Duration of pharmacodynamic activity in comparison with acetylsalicylic acid (in words) ([10]; in vivo): more prolonged pharmacodynamic activity | Gastric injury (in words) ([10]; in vivo): did not exert any appreciable gastric injury | Toxicity in comparison with acetylsalicylic acid (in words) ([10]; in vivo): less toxic | LD50 (Acute toxicity, rat): 530 mg/kg | Inhibition of the edema with respect to treatment with placebo ([11]; 1h): 42 | Inhibition of the edema with respect to treatment with placebo ([11]; 3h): 38 | Inhibition of the edema with respect to treatment with placebo ([11]; 5h): 48 | % Inhibition of the pyrexia in respect of treatment with placebo ([12]; 1h): 18% | % Inhibition of the pyrexia in respect of treatment with placebo ([12]; 2h): 26% | % Inhibition of the pyrexia in respect of treatment with placebo ([12]; 4h): 30% | % Inhibition of the pyrexia in respect of treatment with placebo ([12]; 6h): 25% | % Inhibition of the pyrexia in respect of treatment with placebo ([12]; 8h): 9% | % Inhibition of the edema in respect of treatment with placebo ([13]; 1st day, 2h after 1st dose, ASA 200, AST Ac 300 mg/Kg): 0% | % Inhibition of the edema in respect of treatment with placebo ([13]; 1st day, 4h after 1st dose, ASA 200, AST Ac 300 mg/Kg): 3% | % Inhibition of the edema in respect of treatment with placebo ([13]; 1st day, 8h after 1st dose, ASA 200, AST Ac 300 mg/Kg): 3% | % Inhibition of the edema in respect of treatment with placebo ([13]; 2nd day, 2h after 2nd dose, ASA 400, AST Ac 600 mg/Kg): 3% | % Inhibition of the edema in respect of treatment with placebo ([13]; 2nd day, 4h after 2nd dose, ASA 400, AST Ac 600 mg/Kg): 2% | % Inhibition of the edema in respect of treatment with placebo ([13]; 2nd day, 8h after 2nd dose, ASA 400, AST Ac 600 mg/Kg): 10% | % Inhibition of the edema in respect of treatment with placebo ([13]; 3rd day, 2h after 3rd dose, ASA 200, AST Ac 300 mg/Kg): 8% | % Inhibition of the edema in respect of treatment with placebo ([13]; 3rd day, 4h after 3rd dose, ASA 200, AST Ac 300 mg/Kg): 7% | % Inhibition of the edema in respect of treatment with placebo ([13]; 3rd day, 8h after 3rd dose, ASA 200, AST Ac 300 mg/Kg): 6% | % Inhibition of the edema in respect of treatment with placebo ([13]; 4th day, 13h after 4th dose, ASA 200, AST Ac 300 mg/Kg): 3% | % Inhibition of the edema in respect of treatment with placebo ([13]; 4th day, 17h after 4th dose, ASA 200, AST Ac 300 mg/Kg): 3% | % Inhibition of the edema in respect of treatment with placebo ([13]; 4th day, 23h after 4th dose, ASA 200, AST Ac 300 mg/Kg): 0%
